Our source for the inhibition values is ChEMBL document CHEMBL3739390, “Plantadeprate A, a Tricyclic Monoterpene Zwitterionic Guanidium, and Related Derivatives from the Seeds of Plantago depressa” (2015).

Each structure is given as a SMILES string.

Assay [1] has as its system Hepatocyte. Briefly: Antihyperglycemic activity in Sprague-Dawley rat hepatocytes assessed as inhibition of glucose production at 2 mM after 6 hrs by glucose oxidase activity assay. The class given is functional.
Assay [2] relates to Hepatocyte. Briefly: Antihyperglycemic activity in Sprague-Dawley rat hepatocytes assessed as inhibition of glucose production at 40 uM after 6 hrs by glucose oxidase activity assay. The assay is classed as functional.
For assay [3], the system named is Saccharomyces cerevisiae. Kind of assay: Inhibition of Saccharomyces cerevisiae alpha-glucosidase using 4-nitrophenyl alpha-glucopyranoside as substrate at 6.25 mM preincubated for 10 mins followed by substrate addition measured after 20 mins by spectrophotometric analysis.
The target in assay [4] is T1, Angiotensin-converting enzyme (Oryctolagus cuniculus) (UniProt P12822).
T1 sequence (whole entry): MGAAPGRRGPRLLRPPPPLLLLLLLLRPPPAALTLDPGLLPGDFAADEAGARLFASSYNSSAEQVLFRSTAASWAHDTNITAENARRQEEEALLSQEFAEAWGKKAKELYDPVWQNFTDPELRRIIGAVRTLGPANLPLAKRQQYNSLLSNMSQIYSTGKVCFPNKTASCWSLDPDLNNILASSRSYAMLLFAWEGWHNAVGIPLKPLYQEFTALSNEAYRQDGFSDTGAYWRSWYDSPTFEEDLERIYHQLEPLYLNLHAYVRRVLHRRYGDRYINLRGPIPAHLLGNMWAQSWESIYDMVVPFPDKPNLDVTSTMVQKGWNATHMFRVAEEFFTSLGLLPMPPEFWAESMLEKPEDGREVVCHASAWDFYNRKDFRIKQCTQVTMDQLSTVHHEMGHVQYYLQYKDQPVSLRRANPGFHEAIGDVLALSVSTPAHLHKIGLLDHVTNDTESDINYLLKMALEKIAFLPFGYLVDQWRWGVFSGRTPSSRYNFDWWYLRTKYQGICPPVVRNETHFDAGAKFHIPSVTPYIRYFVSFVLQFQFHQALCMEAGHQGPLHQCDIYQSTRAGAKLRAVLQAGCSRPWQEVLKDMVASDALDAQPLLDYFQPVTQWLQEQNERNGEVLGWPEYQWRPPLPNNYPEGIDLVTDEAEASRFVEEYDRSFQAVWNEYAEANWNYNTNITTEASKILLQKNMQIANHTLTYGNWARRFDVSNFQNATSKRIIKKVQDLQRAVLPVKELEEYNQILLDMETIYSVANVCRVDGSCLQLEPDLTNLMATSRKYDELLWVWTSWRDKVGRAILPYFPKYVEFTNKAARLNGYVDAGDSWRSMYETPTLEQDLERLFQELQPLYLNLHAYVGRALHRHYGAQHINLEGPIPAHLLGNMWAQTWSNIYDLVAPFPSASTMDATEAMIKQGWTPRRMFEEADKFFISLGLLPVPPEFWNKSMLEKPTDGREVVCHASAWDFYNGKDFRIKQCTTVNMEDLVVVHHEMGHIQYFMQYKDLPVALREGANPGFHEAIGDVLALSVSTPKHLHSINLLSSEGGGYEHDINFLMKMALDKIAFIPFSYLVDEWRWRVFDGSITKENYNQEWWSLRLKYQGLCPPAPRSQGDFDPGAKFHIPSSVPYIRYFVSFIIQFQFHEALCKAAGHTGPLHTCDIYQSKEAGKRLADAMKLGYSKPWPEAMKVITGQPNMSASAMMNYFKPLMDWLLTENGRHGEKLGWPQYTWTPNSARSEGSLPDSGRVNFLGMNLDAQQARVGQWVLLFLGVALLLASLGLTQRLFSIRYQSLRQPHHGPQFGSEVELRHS
Briefly: Inhibition of rabbit lung ACE using hippuryl-histidyl-leucine as substrate assessed as hippuric acid formation at 10 mM by UPLC-MS analysis.

On to `CN(C)C(=N)NC(=N)N` [METFORMIN], for which the inhibition at 2000 µM in assay [1] was 25%.

As for `CC(C)=CCC[C@@H](C(=O)O)[C@@H]1CNC(=N)N1`, the inhibition at 40 µM in assay [2] was determined as 12.5%. As to `CC1(C)C[C@]2(O)C[C@@H](C(=O)[O-])[C@@H]3CNC(=[N+]32)N1`, the results for the inhibition in assay [3] and in assay [4] were 20% and 26%, respectively. Further, the inhibition at 40 µM in assay [2] was 8.2%. Consider `CC(C)=CCC[C@@H](C(=O)O)[C@@H]1CN(CC(O)CCO)C(=N)N1` (stereo partly specified), for which, in assay [2], the inhibition at 40 µM is 18.5%.

One may read the inhibition as the change of the read-out against control, counted positive when it falls.
